Calls of active or inactive are those of the source. The calls are words filed in the database; no cut-off is given here.
What was measured:
[1] = biological target: Beta-1 adrenergic receptor (Cavia porcellus, UniProt B0FL73); assay: Antagonist activity at beta1 adrenoceptor in guinea pig atrium assessed as inhibition of isoproterenol-induced response after 20 mins; set-up: species or system Cardiac atrium; details: read-out: pA2 (converted)
[2] = biological target: Beta-2 adrenergic receptor (Cavia porcellus) (UniProt Q8K4Z4); assay: Intrinsic activity at beta2 adrenoceptor in guinea pig atrium relative to isoproterenol; details: Cardiac atrium
[3] = biological target: Beta-1 adrenergic receptor (Cavia porcellus) (UniProt B0FL73); assay: Intrinsic activity at beta1 adrenoceptor in guinea pig atrium relative to isoproterenol; details: Cardiac atrium
[4] = biological target: Beta-1 adrenergic receptor (Cavia porcellus) (UniProt B0FL73); assay: Competitive inhibition of beta1 adrenoceptor in guinea pig atrium assessed as inhibition of isoproterenol-induced response after 20 mins by Schild plot analysis; details: Cardiac atrium
[5] = biological target: Beta-2 adrenergic receptor (Cavia porcellus, UniProt Q8K4Z4); assay: Antagonist activity at beta2 adrenoceptor in guinea pig trachea assessed as inhibition of isoproterenol-induced response after 20 mins; details: read-out: pA2 (converted)
Cavia porcellus = organism: Cavia porcellus; assay: Selectivity ratio for beta1 adrenoceptor in guinea pig atrium over beta2 adrenoceptor in guinea pig trachea; format: tissue-based; details: Cardiac atrium
[6] = biological target: Beta-1 adrenergic receptor (Cavia porcellus) (UniProt B0FL73); assay: Partial agonist activity at beta1 adrenoceptor in guinea pig atrium; details: Cardiac atrium
[7] = biological target: Beta-2 adrenergic receptor (Cavia porcellus) (UniProt Q8K4Z4); assay: Partial agonist at beta2 adrenoceptor in guinea pig trachea

Sequence of Beta-2 adrenergic receptor (Q8K4Z4 whole entry): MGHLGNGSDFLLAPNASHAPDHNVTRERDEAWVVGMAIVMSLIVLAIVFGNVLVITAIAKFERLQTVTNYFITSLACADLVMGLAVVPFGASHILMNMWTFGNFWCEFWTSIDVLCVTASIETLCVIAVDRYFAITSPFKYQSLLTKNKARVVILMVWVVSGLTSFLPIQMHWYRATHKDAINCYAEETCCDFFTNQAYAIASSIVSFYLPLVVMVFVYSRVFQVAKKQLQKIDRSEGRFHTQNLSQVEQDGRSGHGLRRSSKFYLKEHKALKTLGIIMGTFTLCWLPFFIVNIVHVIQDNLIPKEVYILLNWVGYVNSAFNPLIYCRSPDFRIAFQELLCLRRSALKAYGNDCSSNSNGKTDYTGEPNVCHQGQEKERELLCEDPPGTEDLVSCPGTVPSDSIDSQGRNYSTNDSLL
Sequence of Beta-2 adrenergic receptor (Cavia porcellus) (Q8K4Z4 whole entry, looked up): as the sequence (Q8K4Z4 whole entry) above
Sequence of Beta-1 adrenergic receptor (B0FL73 whole entry): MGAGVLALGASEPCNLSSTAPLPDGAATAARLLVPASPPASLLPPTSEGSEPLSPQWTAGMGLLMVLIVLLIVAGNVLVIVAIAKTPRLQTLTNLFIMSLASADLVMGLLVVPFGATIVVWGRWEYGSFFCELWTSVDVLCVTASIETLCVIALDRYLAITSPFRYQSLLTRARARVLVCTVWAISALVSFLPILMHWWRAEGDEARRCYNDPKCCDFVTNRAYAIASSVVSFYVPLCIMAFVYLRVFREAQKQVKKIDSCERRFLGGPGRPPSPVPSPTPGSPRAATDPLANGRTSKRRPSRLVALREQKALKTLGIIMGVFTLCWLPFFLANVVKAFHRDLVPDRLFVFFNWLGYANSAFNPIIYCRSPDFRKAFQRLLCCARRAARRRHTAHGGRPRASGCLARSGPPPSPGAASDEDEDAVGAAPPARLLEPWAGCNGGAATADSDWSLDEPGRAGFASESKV
Sequence of Beta-1 adrenergic receptor (Cavia porcellus) (B0FL73 1-467): as the sequence (B0FL73 whole entry) above

Row | SMILES | Kb [1] [nM] | Intrinsic activity [2] | Intrinsic activity [3] | inhibition [4] | Kb [5] [nM] | Selectivity ratio (Cavia porcellus) | pD2 [6] | pD2 [7]
1 | COc1cc(C)ccc1C(O)CNC(C)C (stereo not given) | 10 | 0.2 | 0.2 | Active | 398 | 40 |  | 
2 | CC(C)NCC(O)c1ccc(Br)cc1 (stereo not given) | 158 |  |  |  | 200 |  |  | 
3 | Cc1ccc(C(O)CNC(C)C)cc1 (stereo not given) | 126 |  |  |  | 316 |  |  | 
4 | COc1ccc(Br)cc1C(O)CNC(C)C (stereo not given) | 1480 |  |  |  | 933 |  |  | 
5 | COc1cc(Br)ccc1C(O)CNC(C)C (stereo not given) | 5.75 | 0.2 | 0.2 | Active | 13.5 | 2 |  | 
6 | COc1ccccc1C(O)CNC(C)C (stereo not given) | 617 | 0.5 | 0.5 |  | 120 |  | 6.3 | 6.8
7 | COc1ccc(C)cc1C(O)CNC(C)C (stereo not given) | 2510 |  |  |  | 2510 |  |  | 
8 | CC(C)NCC(O)c1cccc(Br)c1 (stereo not given) | 631 |  |  |  | 1260 |  |  | 
9 | Cc1cccc(C(O)CNC(C)C)c1 (stereo not given) | 794 |  |  |  | 2000 |  |  | 
